The target of one assay is T1, human GSK3α (Homo sapiens, UniProt P49840).
T1 construct: Full length human GSK3α or GSK3B expressed as N-terminal GST fusion proteins; GST (N); purchased Carna Biosciences (Japan); host or cells: baculovirus host
The assay can be described thus: In vitro enzymatic activity assay, GSK3α. In kind it is biochemical. The note with it: 1.0 mM ATP, 1.0 μM peptide substrate, 120 min, 25° C, read-out: Enzyme GSK3α (IC50).

The target of assay [1] is T2, GSK3B (Homo sapiens, UniProt P49841). Kind of assay: In vitro enzymatic activity assay, GSK3β. The format is biochemical. On the set-up: Full length human GSK3α or GSK3B expressed as N-terminal GST fusion proteins; GST (N); purchased Carna Biosciences (Japan); host or cells: baculovirus host. The note with it: 1.0 mM ATP, 1.0 μM peptide substrate, 120 min, 25° C, read-out: Enzyme GSK3β (IC50).

Assay [2] addresses T2, GSK3B. The assay can be described thus: NanoBRET cellular target engagement assay, Nanoluc-GSK3B in HEK293 cells. The format is cell-based. On the set-up: expressed in transfected cells. The note with it: NanoBRET GSK3β IC50, HEK293 cells, tracer K-8, 2 hours, 37° C. For orientation: In BRET a luciferase serves as donor, and the signal depends on an acceptor being close.
The target of a further assay is T3, GSK3A (Homo sapiens, UniProt P49840).
T3 construct: expressed in transfected cells
Kind of assay: NanoBRET cellular target engagement assay, Nanoluc-GSK3A in HEK293 cells. The note with it: NanoBRET GSK3α IC50, HEK293 cells, tracer K-8, 2 hours, 37° C. The format is cell-based.

Each structure is given as a SMILES string.

T2 sequence (P49841 whole entry, the tested form may be a part): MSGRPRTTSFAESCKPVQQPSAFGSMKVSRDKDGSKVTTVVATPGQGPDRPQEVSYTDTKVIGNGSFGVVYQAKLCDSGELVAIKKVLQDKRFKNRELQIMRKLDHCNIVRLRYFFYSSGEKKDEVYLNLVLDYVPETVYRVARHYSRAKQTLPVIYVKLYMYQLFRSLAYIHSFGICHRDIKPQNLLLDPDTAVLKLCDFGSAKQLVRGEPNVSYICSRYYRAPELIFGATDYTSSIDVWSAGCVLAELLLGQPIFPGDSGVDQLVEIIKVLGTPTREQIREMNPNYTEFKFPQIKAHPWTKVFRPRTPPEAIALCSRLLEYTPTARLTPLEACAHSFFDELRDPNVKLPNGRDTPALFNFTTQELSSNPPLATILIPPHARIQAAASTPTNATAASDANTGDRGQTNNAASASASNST
T3 sequence (P49840 whole entry): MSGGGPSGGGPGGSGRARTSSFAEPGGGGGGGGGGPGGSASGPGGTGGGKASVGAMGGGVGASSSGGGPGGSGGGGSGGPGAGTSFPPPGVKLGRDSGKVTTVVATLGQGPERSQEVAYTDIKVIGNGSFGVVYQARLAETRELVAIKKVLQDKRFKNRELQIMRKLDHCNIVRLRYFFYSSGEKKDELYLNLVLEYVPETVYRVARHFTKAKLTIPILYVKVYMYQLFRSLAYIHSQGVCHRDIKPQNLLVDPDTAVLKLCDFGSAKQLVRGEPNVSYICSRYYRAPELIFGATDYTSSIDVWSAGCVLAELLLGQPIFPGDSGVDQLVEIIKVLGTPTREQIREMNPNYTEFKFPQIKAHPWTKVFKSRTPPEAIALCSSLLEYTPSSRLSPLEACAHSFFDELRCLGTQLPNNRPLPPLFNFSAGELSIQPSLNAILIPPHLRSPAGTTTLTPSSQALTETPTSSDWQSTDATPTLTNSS
T1 sequence (P49840 whole entry, the tested form may be a part): as the sequence (P49840 whole entry) above

Consider `Nc1ncn(-c2c(Cl)cc(C(F)F)cc2Cl)c(=O)c1C(=O)Nc1cccc([C@@H]2CCCN2)c1` [Example 54, (S)-4-amino-1-(2,6-dichloro-4-(difluoromethyl)phenyl)-6-oxo-N-(3-(pyrrolidin-2-yl)phenyl)-1,6-dihydropyrimidine-5-carboxamide], for which the IC50 at human GSK3α was 0.0054 µM; on GSK3B [1], 0.345 µM; against GSK3B [2] it was 0.34 µM; on GSK3A, 0.0054 µM.

Regarding `CNC(COC)c1cncc(NC(=O)c2c(N)ncn(-c3c(Cl)cc(C(F)(F)F)cc3Cl)c2=O)c1` (single isomer, unassigned) [Example 121, (R)-4-amino-1-(2,6-dichloro-4-(trifluoromethyl)phenyl)-N-(5-(2-methoxy-1-(methylamino)ethyl)pyridin-3-yl)-6-oxo-1,6-dihydropyrimidine-5-carboxamide or (S)-4-amino-1-(2,6-dichloro-4-(trifluoromethyl)phenyl)-N-(5-(2-methoxy-1-(methylamino)ethyl)pyridin-3-yl)-6-oxo-1,6-dihydropyrimidine-5-carboxamide], the half-inhibitory concentration (IC50) was determined as 0.0038 µM on human GSK3α, 0.306 µM on GSK3B [1], 0.395 µM against GSK3B [2] and 0.0034 µM against GSK3A.

As to `COc1cc(Cl)c(-n2cnc(N)c(C(=O)Nc3cnc(F)c([C@@H]4CCCCN4)c3)c2=O)c(Cl)c1` (single isomer, unassigned) [Example 76, (S)-4-amino-1-(2,6-dichloro-4-methoxyphenyl)-N-(6-fluoro-5-(piperidin-2-yl)pyridin-3-yl)-6-oxo-1,6-dihydropyrimidine-5-carboxamide or (R)-4-amino-1-(2,6-dichloro-4-methoxyphenyl)-N-(6-fluoro-5-(piperidin-2-yl)pyridin-3-yl)-6-oxo-1,6-dihydropyrimidine-5-carboxamide], the 50% inhibitory concentration (IC50) at human GSK3α was 0.016 µM; on GSK3B [1] it was 0.854 µM; against GSK3B [2] it was 0.591 µM; at GSK3A, 0.0094 µM.

As for `CCC[C@@H](N)c1cncc(NC(=O)c2c(N)ncn(-c3c(C)cc(COC)cc3C)c2=O)c1` [Example 176, (R)-4-amino-N-(5-(1-aminobutyl)pyridin-3-yl)-1-(4-(methoxymethyl)-2,6-dimethylphenyl)-6-oxo-1,6-dihydropyrimidine-5-carboxamide], the half-maximal inhibitory concentration (IC50) on human GSK3α amounted to 0.0051 µM; at GSK3B [1], 0.272 µM; on GSK3B [2] it was 0.19 µM; against GSK3A it was 0.0026 µM.

On to `COc1cc(C)c(-n2cnc(N)c(C(=O)Nc3cncc(C4CCCCCN4)c3)c2=O)c(C)c1` (single isomer, unassigned) [Example 53, (R)-4-amino-N-(5-(azepan-2-yl)pyridin-3-yl)-1-(4-methoxy-2,6-dimethylphenyl)-6-oxo-1,6-dihydropyrimidine-5-carboxamide or (S)-4-amino-N-(5-(azepan-2-yl)pyridin-3-yl)-1-(4-methoxy-2,6-dimethylphenyl)-6-oxo-1,6-dihydropyrimidine-5-carboxamide], for which the half-maximal inhibitory concentration (IC50) stood at 0.0129 µM at human GSK3α, 0.625 µM on GSK3B [1], 0.356 µM against GSK3B [2] and 0.0068 µM against GSK3A.

On to `CCOc1cc(C)c(-n2cnc(N)c(C(=O)Nc3cncc(C4CCC(C)N4)c3)c2=O)c(C)c1` (single isomer, unassigned) [Example 92], for which the 50% inhibitory concentration (IC50) on human GSK3α was determined as 0.0164 µM; at GSK3B [1] it was 1.03 µM; against GSK3B [2], 0.584 µM; at GSK3A, 0.0068 µM.

Consider `CCOCc1cc(C)c(-n2cnc(N)c(C(=O)Nc3cncc(C4CCCCCN4)c3)c2=O)c(C)c1` (single isomer, unassigned) [Example 132, (R)-4-amino-N-(5-(azepan-2-yl)pyridin-3-yl)-1-(4-(ethoxymethyl)-2,6-dimethylphenyl)-6-oxo-1,6-dihydropyrimidine-5-carboxamide or (S)-4-amino-N-(5-(azepan-2-yl)pyridin-3-yl)-1-(4-(ethoxymethyl)-2,6-dimethylphenyl)-6-oxo-1,6-dihydropyrimidine-5-carboxamide], for which the concentration for half-maximal inhibition (IC50) stood at 0.0055 µM on human GSK3α, 0.228 µM at GSK3B [1], 0.181 µM against GSK3B [2] and 0.002 µM against GSK3A.

Turning to `COc1cc(Cl)c(-n2cnc(N)c(C(=O)Nc3cncc(CNC(C)C)c3)c2=O)c(Cl)c1` [Example 20, 4-amino-1-(2,6-dichloro-4-methoxyphenyl)-N-(5-((isopropylamino)methyl)pyridin-3-yl)-6-oxo-1,6-dihydropyrimidine-5-carboxamide], the half-maximal inhibitory concentration (IC50) on human GSK3α stood at 0.014 µM; at GSK3B [1], 0.685 µM; at GSK3B [2], 0.396 µM; at GSK3A, 0.0072 µM.

Take `COc1ccccc1-n1cnc(N)c(C(=O)Nc2cccc(C3CCCN3)c2N2CCOCC2)c1=O` (single isomer, unassigned) [Example 166, (S)-4-amino-1-(2-methoxyphenyl)-N-(2-morpholino-3-(pyrrolidin-2-yl)phenyl)-6-oxo-1,6-dihydropyrimidine-5-carboxamide or (R)-4-amino-1-(2-methoxyphenyl)-N-(2-morpholino-3-(pyrrolidin-2-yl)phenyl)-6-oxo-1,6-dihydropyrimidine-5-carboxamide]: the IC50 was found to be 0.285 µM at human GSK3α, 9.38 µM at GSK3B [1], 16.1 µM against GSK3B [2] and 0.177 µM at GSK3A.

Consider `COCc1cc(C)c(-n2cnc(N)c(C(=O)Nc3cncc(C4CNC(=O)CN4)c3)c2=O)c(C)c1` (single isomer, unassigned) [Example 159, (R)-4-amino-1-(4-(methoxymethyl)-2,6-dimethylphenyl)-6-oxo-N-(5-(5-oxopiperazin-2-yl)pyridin-3-yl)-1,6-dihydropyrimidine-5-carboxamide or (S)-4-amino-1-(4-(methoxymethyl)-2,6-dimethylphenyl)-6-oxo-N-(5-(5-oxopiperazin-2-yl)pyridin-3-yl)-1,6-dihydropyrimidine-5-carboxamide], for which the concentration for half-maximal inhibition (IC50) stood at 0.0906 µM at human GSK3α, 2.08 µM at GSK3B [1], 5.79 µM against GSK3B [2] and 0.0769 µM on GSK3A.

Turning to `CNCc1cncc(NC(=O)c2c(N)ncn(-c3c(C)cc(C(F)F)cc3C)c2=O)c1` [Example 105, 4-amino-1-(4-(difluoromethyl)-2,6-dimethylphenyl)-N-(5-((methylamino)methyl)pyridin-3-yl)-6-oxo-1,6-dihydropyrimidine-5-carboxamide], the IC50 worked out at 0.0193 µM on human GSK3α, 1.13 µM at GSK3B [1], 0.577 µM at GSK3B [2] and 0.0072 µM on GSK3A.

As for `Cc1cc(C(F)(F)F)cc(C)c1-n1cnc(N)c(C(=O)Nc2cncc(C3CCC(C)N3)c2)c1=O` (single isomer, unassigned) [Example 87], the concentration for half-maximal inhibition (IC50) on human GSK3α came to 0.0179 µM; at GSK3B [1], 1.13 µM; against GSK3B [2], 0.543 µM; on GSK3A it was 0.0076 µM.

Regarding `CCOc1cc(Cl)c(-n2cnc(N)c(C(=O)Nc3cncc(C(COC)NC)c3)c2=O)c(Cl)c1` (single isomer, unassigned) [Example 141, (R)-4-amino-1-(2,6-dichloro-4-ethoxyphenyl)-N-(5-(2-methoxy-1-(methylamino)ethyl)pyridin-3-yl)-6-oxo-1,6-dihydropyrimidine-5-carboxamide or (S)-4-amino-1-(2,6-dichloro-4-ethoxyphenyl)-N-(5-(2-methoxy-1-(methylamino)ethyl)pyridin-3-yl)-6-oxo-1,6-dihydropyrimidine-5-carboxamide], the IC50 stood at 0.0041 µM at human GSK3α, 0.232 µM at GSK3B [1], 0.318 µM at GSK3B [2] and 0.0029 µM at GSK3A.

Consider `CCOc1cc(C)c(-n2cnc(N)c(C(=O)Nc3cccc([C@H](N)COC)c3)c2=O)c(Cl)c1` (atropisomer, axis not shown) [Example 72, (S)-4-amino-N-(3-(1-amino-2-methoxyethyl)phenyl)-1-((S)-2-chloro-4-ethoxy-6-methylphenyl)-6-oxo-1,6-dihydropyrimidine-5-carboxamide], for which the IC50 turned out to be 0.0075 µM at human GSK3α, 0.468 µM on GSK3B [1], 0.379 µM against GSK3B [2] and 0.0051 µM at GSK3A.

Consider `COc1cc(Cl)c(-n2cnc(N)c(C(=O)Nc3cncc(C4COCCN4)c3)c2=O)c(Cl)c1` (single isomer, unassigned) [Example 212, (S)-4-amino-1-(2,6-dichloro-4-methoxyphenyl)-N-(5-(morpholin-3-yl)pyridin-3-yl)-6-oxo-1,6-dihydropyrimidine-5-carboxamide or (R)-4-amino-1-(2,6-dichloro-4-methoxyphenyl)-N-(5-(morpholin-3-yl)pyridin-3-yl)-6-oxo-1,6-dihydropyrimidine-5-carboxamide], for which the 50% inhibitory concentration (IC50) was determined as 0.0047 µM on human GSK3α, 0.272 µM at GSK3B [1], 0.52 µM against GSK3B [2] and 0.0076 µM against GSK3A.

Consider `CNC(COC)c1cncc(NC(=O)c2c(N)ncn(-c3c(Cl)cc(C(F)(F)F)cc3Cl)c2=O)c1` (single isomer, unassigned) [Example 122, (R)-4-amino-1-(2,6-dichloro-4-(trifluoromethyl)phenyl)-N-(5-(2-methoxy-1-(methylamino)ethyl)pyridin-3-yl)-6-oxo-1,6-dihydropyrimidine-5-carboxamide or (S)-4-amino-1-(2,6-dichloro-4-(trifluoromethyl)phenyl)-N-(5-(2-methoxy-1-(methylamino)ethyl)pyridin-3-yl)-6-oxo-1,6-dihydropyrimidine-5-carboxamide], for which the IC50 on human GSK3α was determined as 0.0053 µM; at GSK3B [1], 0.327 µM; against GSK3B [2], 0.314 µM; against GSK3A, 0.005 µM.

Usually IC50 stands for the concentration at which inhibition is half-maximal.
